These results are taken from PMC9820592, “Novel Chiral Ru(II) Complexes as Potential c-myc G-quadruplex DNA Stabilizers Inducing DNA Damage to Suppress Triple-Negative Breast Cancer Progression” (International Journal of Molecular Sciences, 2022).

Bounds are passed on as bounds.

In data set [1] the test system is MDA-MB-231 cells. Briefly: MTT assay, MDA-MB-231 cells. In kind it is cell-based, human. Conditions: 72 h, read-out: Inhibitory Effect (IC50/μM) MDA-MB-231. The procedure:
(§1) Liver cancer HepG2 cells, lung cancer A549 cells, breast cancer MCF-7 and MDA-MB-231 cells, human nasopharyngeal carcinoma CNE-1 cells, and human immortalized keratinocyte HaCaT cells were seeded in 96-well plates (5 × 10^3 cells per well) and cultured at 37 °C and 5% CO2 for 24 h. Cells were treated with different concentrations of the complexes (0, 1.5625, 3.125, 6.25, 12.5, 25, 50, and 100 µM) for 72 h. After adding 20 µL MTT (5 mg/mL) solution to each well, the cells were incubated for 4 h, and then 150 µL DMSO was added to each well. The optical density of each well was detected by a microplate reader at a wavelength of 570 nm. The cell survival rate (%) = A(experimental group)/A(control group) × 100%, and the IC50 value was analyzed and calculated based on the survival rate.

Another data set relates to MCF-7 cells. Briefly: MTT assay, MCF-7 cells. It is filed as cell-based, human. Particulars: 72 h, read-out: Inhibitory Effect (IC50/μM) MCF-7. Here is the method: as §1
The next data set deals with HepG2 cells. Briefly: MTT assay, HepG2 cells. It is filed as cell-based, human. Particulars: 72 h, read-out: Inhibitory Effect (IC50/μM) HepG2. The procedure: as §1
The test system of another data set is HaCaT cells. In words: MTT assay, normal HaCaT keratinocytes. It is filed as cell-based. Particulars: 72 h, normal human keratinocytes, read-out: Inhibitory Effect (IC50/μM) HaCaT. The procedure:
as §1

The test system of the next data set is A549 cells. Briefly: MTT assay, A549 cells. It is filed as cell-based, human. Conditions: 72 h, read-out: Inhibitory Effect (IC50/μM) A549. Here is the method: as §1
Another data set concerns CNE-1 cells. In words: MTT assay, CNE-1 cells. In kind it is cell-based, human. Conditions: 72 h, read-out: Inhibitory Effect (IC50/μM) CNE-1. Here is the method:
as §1

The test system of data set [2] is MDA-MB-231 cells. In words: EdU proliferation assay. It is filed as cell-based, human. Conditions: control 50.2%. The procedure: The inhibitory effect of the chiral DPPZ-based Ru(II) complexes (Λ/Δ−1−3) was assessed against different human tumor cancer cells, such as breast cancer MCF-7, MDA-MB-231, lung cancer A549, liver carcinoma HepG2, nasopharyngeal carcinoma CNE-1, and human normal keratinocyte HaCaT cells, by MTT assay. […] Moreover, the inhibition of MDA-MB-231 cell proliferation by Δ−3 was detected by using an EdU (5-ethynyl-2′-deoxyuridine) staining kit, and EdU was incorporated into newly synthesized DNA in the sample cells. The red fluorescent azide is small enough to diffuse freely through native tissues and DNA, and it covalently cross-links to the EdU in a “click” chemistry reaction.

In data set [3] the test system is c-myc G-quadruplex DNA. In words: PCR-stop assay. It is filed as biochemical, human. Conditions: Taq polymerase. Here is the method: In this study, c-myc G4 DNA and its reverse complementary sequence c-myc rev were heated to 95 °C for 5 min, allowed to cool to room temperature, and incubated at 4 °C overnight. The system was supplemented with dNTPs and Taq polymerase for PCR amplification; heated at 95 °C for 3 min, 94 °C for 30 s, and 58 °C for 30 s, with an extension at 72 °C for 30 s (30 cycles); and analyzed by 15% nondenatured polyacrylamide gel electrophoresis and silver staining.

Data set [4] has as its system MDA-MB-231 cells. Briefly: ICP detection of Ru content in cells. It is filed as cell-based, human. Conditions: 24 h, control 0.4. Here is the method: MDA-MB-231 cells were seeded in 10 cm cell culture dishes. After cell adherence, the cells were treated with the drug (0, 2.5, 5, and 10 μM) for 24 h. After 24 h, the cells were washed with PBS three times and collected by trypsin. The number of collected cells was counted by a cell counter. Then, the cells were digested in 1 mL HNO3 solution by microwave digestion at 120 °C for 3 min, and 1 mL of this solution was transferred to a 5 mL volumetric flask, diluted with distilled water to volume, and mixed. The Ru content of these solutions was analyzed by an ICP optical emission spectrometer (NCS, Plasma 2000). All measurements were repeated three times.

The subject of data set [5] is c-myc G-quadruplex DNA. In words: FRET melting assay. Conditions: free DNA Tm 59.5 °C. In kind it is binding, human. The procedure: Carboxy fluorescein (FAM) and 6-carboxytetramethyl rhodamine (TAMRA) double fluorescent-labeled c-myc G4 DNA (5′−FAM-TGAGGGTGGGAGGGGTAA-TAMRA−3′) were heated to 95 °C in Tris-HCl-KCl buffer (containing 10 mM Tris-HCl, 100 mM KCl, pH 7.4) for 5 min and slowly cooled to room temperature. To ds26, double-stranded DNA ([…]) is a competitive binder, research Λ/Δ−3 with c-myc G4 selectivity binding ability of DNA. A Bio-Radiq5 real-time PCR detection system was used to measure the fluorescence melting curve. Approximately 1 μM (5 μL) FPU22T was mixed with a series of 5 μL compound solutions of different concentrations, and 15 μLTris-HCl-KCl buffer was added to the PCR 8 tube to obtain a total volume of 25 μL. A real-time fluorescence quantitative PCR instrument was used, and incubation was performed at 30 °C for 30 min. The program temperature range was set to 30–95 °C at a temperature interval of 1 °C, and recording was performed after balancing for 30 s to detect the fluorescence value of FAM. The conditions of the reaction system were similar to those of the FRET melting point test except that different concentrations of ds26 were added.

Consider `N.N.[Cl][Pt][Cl]` [Cis-platin, cisplatin, reference compound], for which the IC50 was determined as 25.9 ± 1.9 µM with MDA-MB-231 cells [1]; 14.27 ± 0.07 µM with MCF-7 cells; 12.7 ± 0.7 µM in the data set with HepG2 cells; 7.1 ± 0.5 µM with HaCaT cells; 9.9 ± 0.25 µM with A549 cells.
Regarding Δ-[Ru(bpy)2(BrDPPZ)](ClO4)2 [Δ−2], the IC50 in the data set with CNE-1 cells was above 100 µM; in the data set on MDA-MB-231 cells [1] it was 94.5 ± 9.1 µM; in the data set on MCF-7 cells, above 100 µM; with HepG2 cells, above 100 µM; in the data set on HaCaT cells it was above 100 µM; in the data set on A549 cells, 89.9 ± 11.3 µM.
In the case of Δ-[Ru(bpy)2(DPPZ)](ClO4)2 [Δ−1], the IC50 in the data set on CNE-1 cells, in the data set with MDA-MB-231 cells [1], in the data set with MCF-7 cells, in the data set on HepG2 cells, with HaCaT cells and in the data set on A549 cells was above 100 µM in each case.
Consider Λ-[Ru(bpy)2(3-NBEDPPZ)](ClO4)2 [Λ−3], for which the IC50 in the data set on CNE-1 cells is above 100 µM; with MDA-MB-231 cells [1], 53.5 ± 1.7 µM; in the data set on HepG2 cells it was 74.8 ± 2.4 µM; with HaCaT cells, above 100 µM; in the data set on A549 cells, 55.4 ± 2.4 µM. Further, the “proliferation rate (EdU)” value with MDA-MB-231 cells [2] (10 μM) is listed as 34.0%; with MDA-MB-231 cells [2] (20 μM) it was 27.5%; in the data set with MDA-MB-231 cells [2] (40 μM), 11.3%. Besides, in the data set on c-myc G-quadruplex DNA [3], the “minimum concentration necessary for effective inhibition (PCR products)” value amounted to 5 µM. Also, the results for the “Ru content in cells” value in the data set on MDA-MB-231 cells [4] (2.5 μM), with MDA-MB-231 cells [4] (5 μM) and with MDA-MB-231 cells [4] (10 μM) were 0.56 ng/mL per 1 × 10^4 cells, 1.44 ng/mL per 1 × 10^4 cells and 2.47 ng/mL per 1 × 10^4 cells, respectively. For the same compound, the ΔTm result was “approximately 2.2 °C” in the data set with c-myc G-quadruplex DNA [5] (complex 0.5 μM) and around 4.9 °C in the data set with c-myc G-quadruplex DNA [5] (complex 1.0 μM).
Take Λ-[Ru(bpy)2(BrDPPZ)](ClO4)2 [Λ−2]: the IC50 with CNE-1 cells was above 100 µM; with MDA-MB-231 cells [1], 92.1 ± 12.1 µM; in the data set on MCF-7 cells, above 100 µM; in the data set with HepG2 cells, above 100 µM; in the data set with HaCaT cells, above 100 µM; in the data set on A549 cells, 91.5 ± 10.8 µM.
Regarding Λ-[Ru(bpy)2(DPPZ)](ClO4)2 [Λ−1], the IC50 in the data set with CNE-1 cells was above 100 µM; with MDA-MB-231 cells [1], 60.8 ± 7.41 µM; with MCF-7 cells it was above 100 µM; in the data set on HepG2 cells, above 100 µM; in the data set with HaCaT cells it was above 100 µM; in the data set on A549 cells it was above 100 µM.
